Converted amounts (≈) assume the structure as drawn. Blank lines part the entries; values can stand above or below the compound they belong to.
Legend:
[1] = test system: Fibronectin secretion from bladder carcinoma cells (HTB-9); assay: Fibronectin secretion (Western blot), HTB-9 cells; format: cell-based, human; details: 10 ug/ml; for inhibition at 10 µg/mL: Homo sapiens
[2] = test system: Fibronectin secretion from skin SK-Mel-5 cells; assay: Fibronectin secretion (Western blot), SK-MEL-5 cells; format: cell-based, human; details: for % inhibition of Fibronectin secretion / inhibition at 10 µg/mL: 10 ug/ml
[3] = test system: Fibronectin secretion from brain glioblastoma T98G cells; assay: Fibronectin secretion (Western blot), T98G cells; format: cell-based, human; details: for % inhibition of Fibronectin secretion / inhibition at 10 µg/mL: 10 ug/ml
[4] = test system: Fibronectin secretion from ES2 cells; assay: Fibronectin secretion (Western blot), ES2 cells; format: cell-based, human; details: 10 ug/ml; for % inhibition of Fibronectin secretion: ES2 cells; for inhibition at 10 µg/mL: Homo sapiens, ES-2, ES2 cells
Method: Inhibition of Fibronectin secretion is physiological and the determination of its quantity is based on the following criteria: • 1. Fibronectin is secreted from viable cells. Only cell with over 85% viable cells after drug-treatment are employed in these experiments. The viable cells were determined by MTT assay. • 2. For comparison, the immuno-band intensity from each samples are normalized with cell mass. The cell mass was determined by the MTT assay and is assigned as a MTT unit for each cell sample.
Cells: ES2 cells were grew in T-25 flask with RPMI 1640 medium over night before drug-treatment. Drug-treatment: cells cultures were replaced with fresh RPMI medium with Xanifolia-Y (10 ug/ml final concentration) or DMSO (as control) at 0 hour. At 1, 2, 4, 8 and 24 hour, aliquot of culture medium was taken out for Fibronectin determination. Fibronectin was determined by Western blot with monoclonal antibody (SIGMA) specific to human Fibronectin only.
Drug-treatment: cells cultures were replaced with fresh RPMI medium containing Xanifolia-Y (10 ug/ml final concentration) or DMSO (as control) at 0 hour. At 4 hours (A) or 8 hour (B), culture medium was replaced with fresh culture medium without drug. At 2, 4, 8 and 24 hour, aliquot of culture medium was taken out for Fibronectin determination. Fibronectin (FN) was determined by Western blot with monoclonal antibody (SIGMA) specific only to human Fibronectin.
(§1) Drug-treatment: cells cultures were replaced with fresh RPMI medium containing Xanifolia-Y (10 ug/ml final concentration) or DMSO (as control) at 0 hour. At 2, and 18 hour, aliquot of culture medium was taken out for Fibronectin determination (Western blot method). Cell viability at 18 hours was determined by MTT assay. Cultures were replaced with RPMI medium with MTT and incubated for an hour. The formation of formazan was dissolved in DMSO and OD at 570 nm was measured.
Cells and Drug-treatment: same as previous experiments. After 7 or 24 hours, aliquot of culture medium was taken out for Fibronectin determination (Western blot method). Cell viability at 24 hours was determined by MTT assay.
Cells: ES2 cells were grew in RPMI 1640 medium over night before drug-treatment. Drug-treatment: cells cultures were replaced with fresh RPMI medium containing DMSO (as control) [D]; Xanifolia-Y (10 ug/ml) [Y]; or Paclitaxel 10 or 50 ng/ml [T10, ro T50]. After 24 hours, aliquot of culture medium was taken out for Fibronectin determination (Western blot method). Cell viability at 24 hours was determined by MTT assay.
The amount of Fibronectin secreted by cells into medium was determined by Western blot assay. The amount of Fibronectin secreted per cells basis was determined by dividing the Western-band intensity with the MTT unit.
Western Blot: Spent culture medium (0.6 ml) was mixed with SDS sample buffer (0.2 ml), boiled for 3 minutes before loading to SDS gel. Samples (60 ul/lane) were applied to a 6% SDS gel and electrophoresis was conducted with 100 volts for 2 hours. Protein was transferred to a nitrocellulose paper electrophoretically (30 min at 100 volts). The Western blot was incubated with the first antibody (mouse anti-FN, specific to human FN, SIGMA F0916) and second antibody (Anti-mouse IgG AP conjugated, Promega S3721). The immunobands were developed with BCIP/NBT color development system (Promega S3771).

[5] = test system: Fibronectin secretion from lung carcinoma cells (H460); assay: Fibronectin secretion (Western blot), H460 cells; format: cell-based, human; details: for % inhibition of Fibronectin secretion: H460 cells; for % inhibition of Fibronectin secretion / inhibition at 10 µg/mL: 10 ug/ml
[6] = test system: Fibronectin secretion from liver HepG2 cells; assay: Fibronectin secretion (Western blot), HepG2 cells; format: cell-based, human; details: 10 ug/ml; for % inhibition of Fibronectin secretion: HepG2 cells; for inhibition at 10 µg/mL: Homo sapiens, HepG2, HepG2 cells
(Skin) SK-MELS = assay: MTT assay SK-MEL-5; format: cell-based, human
Method: (§2) Cells. Human cancer cell lines were obtained from American Type Culture Collection: HTB-9 (bladder), HeLa-S3 (cervix), DU145 (prostate), H460 (lung), MCF-7 (breast), K562 (leukocytes), HCT116 (colon), HepG2 (liver), U2OS (bone), T98G (brain), SK-MEL-5 (Skin) and OVCAR-3 (ovary). The cells were grown in following culture media: HeLa-53, DU145, MCF-7, Hep-G2 and T98G are in MEN (Earle's salts); HTB-9, H460, K562 and OVCAR-3 in RPMI-1640; HCT-116 and U2OS in McCoy-5A. They are supplemented with 10% fetal calf serum, glutamine and antibiotics, and incubated in an incubator with 5% CO2 humidified at 37° C.
(§3) MTT Assay. The procedure for MTT assay followed the method described by Carmichael et al. (1987) with modifications. […] The formazan (product of the reduction of tetrazolium by viable cells) formed and was dissolved with DMSO and the O.D. at 490 nm, and was measured by an ELISA reader. The MTT level of the cells before drug-treatment was also measured (T0). The % cell-growth (% G) is calculated as: % G=(TD−T0/TC−T0)×100(1), where TC or TD represents O.D. readings of control or drug-treated cells. When T0>TD, then the cytotoxicity (LC) expressed as % of the control is calculated as: % LC=(TD−T0/T0)×100(2).

[7] = test system: (bladder)TB9 cells / HTB-9; assay: MTT assay bladder cells; format: cell-based, human; details: (bladder)TB9 cells
Method: as §2
(§4) MTT Assay. The procedure for MTT assay followed the method described by Carmichael et al. (1987) with modifications. The cells were seeded into a 96-well plate at concentration of 10,000/well for HTB-9, HeLa, H460, HCT116, T98G and OVCAR-3), 15,000/well for DU145, MCF-7, HepG2 and U2OS), and 40,000/well for K562 for 24 hours before drug-treatment. The cells were then exposed to the drugs for 48 hours (72 hours for HepG2 and U2OS, and 96 hours for MCF-7). After the drug-treatment, MTT (0.5 mg/mL) was added to cultures and incubated for an hour. The formazan (product of the reduction of tetrazolium by viable cells) formed and was dissolved with DMSO and the O.D. at 490 nm, and was measured by an ELISA reader. The MTT level of the cells before drug-treatment was also measured (T0). The % cell-growth (% G) is calculated as: % G=(TD−T0/TC−T0)×100(1), where TC or TD represents O.D. readings of control or drug-treated cells. When T0>TD, then the cytotoxicity (LC) expressed as % of the control is calculated as: % LC=(TD−T0/T0)×100(2).

(Breast)MCF7 = assay: MTT assay MCF7; format: cell-based, human
Method: as §2, §3

(Liver) HepG2 = assay: MTT assay HepG2; format: cell-based, human
Method: as §2, §3

ES2(ovarian) cells = assay: MTT assay ES2; format: cell-based, human; details: ES2 cells
Method: as §4
Methods: ES2 cells were exposed to (i) Xanifolia-Y with concentrations of 40, 20, 10, 5, 2.5, and 1.25 ug/ml; or (ii) Paclitaxel with concentrations of […]; or (iii) Combined Xanifolia-Y and Paclitaxel with concentrations of each drug in same order (for example, 40 ug/ml Y plus 10 ng/ml T; 20 ug/ml Y plus 5 ng/ml T, etc. please see FIG. 28). Cells growth under these conditions was determined by the MTT assay.
as §1

(Prostate) DU145 = assay: MTT assay DU145; format: cell-based, human
Method: as §2, §3

tumor growth = assay: MTT anticancer activity of Y, X and hydrolysis products (FIG. 4C); format: cell-based; details: FIG. 4C; read-out: IC50, inhibits tumor growth / anticancer activity
Method: as §4
(A) Alkaline Hydrolysis of Xanifolia-Y: 20 mg of Xanifolia-Y was dissolved in 0.5 mL of 1M NaOH. The solution was incubated in an 80° C. water bath for 4 hours. It was cooled to room temperature before being neutralized with 0.5 mL 1 N HCl (adjusted pH to about 3). The mixture was extracted with 2 mL 1-butanol 3 times. The butanol fractions were collected and lyophilized. The hydrolyzed saponin was further purified with HPLC in a C-18 column eluted with 25% acetonitrile.
(B) Acid Hydrolysis of Xanifolia-Y: 15 mg Xanifolia-Y was dissolved in 1 mL of Methanol. 1 mL of 2N HCl was then added. The mixture was refluxed in an 80° C. water bath for 5 hours. The solution was then neutralized by adding 2 mL of 1N NaOH (to a final pH 3-4). The aglycone was then extracted with ethylacetate 3 mL×3. The extracts were collected and pooled. Further isolation of aglycone (sugar-removed Xanifolia-Y) was achieved by HPLC with isocratic elution of 80% acetonitrile.

ovarian cancer cells = assay: MTT assay, growth of ovarian cancer cells (FIG. 3A, 3B); format: cell-based; details: Homo sapiens, read-out: IC50, inhibiting growth of ovarian cancer cells
Method: as §2, §3

[8] = Homo sapiens, NCI-H460, H460 cells

Compound: CC=C(C)C(=O)OC1C(OC(=O)c2ccccc2)C(C)(C)CC2C3=CCC4C5(C)CCC(OC6OC(C(=O)OC)C(O)C(OC7OCC(O)C(O)C7O)C6OC6OC(CO)C(O)C(O)C6O)C(C)(C)C5CCC4(C)C3(C)CC(O)C21CO [Ba4, 3-O-[β-D-galactopyranosyl(1→2)]-β-D-xylopyranosyl (1→3)-β-D-methylglucuronopyranosyl-21-O-benzoyl, 22-O-angeloyl-3β, 15α, 21β, 22α, 28-pentahydroxyolean-12-ene]
% inhibition of Fibronectin secretion [1]: 30%
% inhibition of Fibronectin secretion [2]: 10%
% inhibition of Fibronectin secretion [3]: 24%
% inhibition of Fibronectin secretion [4]: 28%
% inhibition of Fibronectin secretion [5]: 18%
% inhibition of Fibronectin secretion [6]: 28%

IC50 ((Skin) SK-MELS): 25 µg/mL (≈ 17.1 µM)
IC50 ((Breast)MCF7): 11 µg/mL (≈ 7.52 µM)
IC50 ((Liver) HepG2): 6.5 µg/mL (≈ 4.44 µM)
IC50 ((Prostate) DU145): 7.6 µg/mL (≈ 5.19 µM)
Compound: CC=C(C)C(=O)OC1C(OC(=O)C(C)=CC)C23C(O)CC4(C)C5(C)CCC6C(C)(C)C(OC7OC(C(=O)O)C(O)C(OC8OC(CO)C(O)C(O)C8OC8OC(C)C(O)C(O)C8OC8OC(C)C(O)C(O)C8O)C7OC7OC(CO)C(O)C(O)C7O)CCC6(C)C5CCC4(OC2O)C3CC1(C)C (centres unmarked) [Mb5]
% inhibition of Fibronectin secretion [1]: 28%
% inhibition of Fibronectin secretion [2]: 15%
% inhibition of Fibronectin secretion [3]: 33%
IC50 [7]: 6.5 µg/mL (≈ 4.44 µM)
% inhibition of Fibronectin secretion [4]: 35%
% inhibition of Fibronectin secretion [5]: 25%
% inhibition of Fibronectin secretion [6]: 35%
IC50 (ES2(ovarian) cells): 6.5 µg/mL (≈ 4.44 µM)

IC50 (tumor growth): 6 µg/mL (≈ 5.26 µM)
IC50 (ovarian cancer cells): 30 µg/mL (≈ 26.3 µM)
Compound: C/C=C(/C)C(=O)O[C@H]1[C@H](OC(C)=O)C(C)(C)CC2C3=CCC4[C@@]5(C)CC[C@H](O[C@@H]6OC(C(=O)OCCCC)[C@@H](O)C(O[C@@H]7O[C@@H](CO)C(O)C7O)C6O[C@@H]6OC(CO)[C@H](O)C(O)C6O)C(C)(C)C5CC[C@@]4(C)[C@]3(C)C[C@@H](O)[C@]21CO (stereo partly drawn) [X, 3-O-{[β-D-galactopyranosyl (1→2)]-[α-L-arabinofuranosyl (1→3)]-β-D-glucuronopyranosidebutyl ester}-21-O-acetyl-22-O-angeloyl-3β,16α,21β,22α,28-pentahydroxyolean-12-ene]
inhibition at 10 µg/mL [1]: 38%
inhibition at 20 µg/mL ([2]; Homo sapiens, 20 ug/ml): 15%
inhibition at 20 µg/mL ([3]; Homo sapiens, T98G, 20 ug/ml): 52%
inhibition at 10 µg/mL [4]: 39%
inhibition at 20 µg/mL ([5]; Homo sapiens, NCI-H460, H460 cells, 20 ug/ml): 37%
inhibition at 10 µg/mL [6]: 42%

Compound: C/C=C(/C)C(=O)O[C@H]1[C@H](OC(=O)C(C)C)[C@@]2(CO)C(CC1(C)C)C1=CCC3[C@@]4(C)CC[C@H](O[C@@H]5OC(C(=O)O)[C@@H](O)C(O[C@@H]6O[C@@H](CO)C(O)C6O)C5O[C@@H]5OC(CO)[C@H](O)C(O)C5O)C(C)(C)C4CC[C@@]3(C)[C@]1(C)[C@@H](O)[C@H]2O (stereo partly drawn) [Xanifolia Y0, 3-O-[β-D-galactopyranosyl(1→2)]-α-L-arabinofuranosyl(1→3)-β-D-glucuronopyranosyl-21-O-angeloyl, 22-O-(2-methylpropanoyl)-3β, 15α, 16α, 21β, 22α, 28-hexahydroxyolean-12-ene]
inhibition at 10 µg/mL [1]: 32%
inhibition at 10 µg/mL ([2]; Homo sapiens): 27%
inhibition at 10 µg/mL ([3]; Homo sapiens): 22%
inhibition at 10 µg/mL [4]: 34%
inhibition at 10 µg/mL [5, 8]: 22%
inhibition at 10 µg/mL [6]: 40%

Compound: C/C=C(/C)C(=O)O[C@@H]1C(O)[C@H](O[C@H]2[C@H](OC(C)=O)[C@@]3(CO)C(CC2(C)C)C2=CCC4[C@@]5(C)CC[C@H](O[C@@H]6OC(C(=O)O)[C@@H](O)[C@@H](O[C@@H]7O[C@@H](CO)[C@@H](O)C7O)C6O[C@@H]6OC(CO)[C@H](O)[C@@H](O)C6O)C(C)(C)C5CC[C@@]4(C)[C@]2(C)C[C@H]3O)OC(C)[C@@H]1OC(=O)/C(C)=C\C (stereo partly drawn) [Xanifolia Y1, 3-O-[β-D-galactopyranosyl (1→2)]-α-L-arabinofuranosyl (1→3)-β-D-glucuronopyranosyl-21-O-(3,4-diangeloyl)-α-L-rhamnophyranosyl-22-O-acetyl-3β,16α, 21β, 22α, 28-pentahydroxyolean-12-ene]
inhibition at 10 µg/mL [1]: 50%
inhibition at 10 µg/mL ([2]; Homo sapiens): 10%
inhibition at 10 µg/mL ([3]; Homo sapiens): 40%
inhibition at 10 µg/mL [4]: 41%
inhibition at 10 µg/mL [5, 8]: 13%
inhibition at 10 µg/mL [6]: 33%
